These results are taken from patent publication US6822146B2, “Sulfonylurea-tolerant sunflower line M7” (priority 2000, dated 2004).

Read-outs that look alike come from different tables or passages of the source.

One data set deals with BC4-M5M7. Nature of the data set: Test B greenhouse phytotoxicity, BC4-M5M7. It counts as in vivo, sunflower. The note with it: in vivo. An outline of the steps: (§1)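 Formulated ALS-inhibiting herbicides sprayed post-emergence at the 4-leaf stage on homozygous mutant sunflower inbreds (M5 maintainers and BC4 male-sterile back-crosses) in the greenhouse, at rates commonly used in registered crops. Two replicates; crop injury rated as % phytotoxicity, 0% meaning no injury.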

The next data set deals with M5M7. Nature of the data set: Test B greenhouse phytotoxicity, M5M7. It is filed as in vivo, sunflower. The conditions noted are these: in vivo. An outline of the steps:
as §1

The subject of a further data set is BC4-M5M12. Nature of the data set: Test B greenhouse phytotoxicity, BC4-M5M12. It counts as in vivo, sunflower. The note with it: in vivo. An outline of the steps: as §1
The test system of a further data set is M5M11. Nature of the data set: Test B greenhouse phytotoxicity, M5M11. It is filed as in vivo, sunflower. The conditions noted are these: in vivo. An outline of the steps:
as §1

For another data set, the system named is H89A × M4M12. It counts as in vivo, sunflower. The conditions noted are these: variety F. An excerpt:
(§2) To generate the hybrids C, D and E, the fourth generation self-pollinated maintainer mutant lines M4M12, M4M11 and M4M7 were chemically sterilized by applying at the bud “star” flower stage a small amount of gibberellic acid solution to sterilize the pollen according to the general method described in Sunflower Science Technology, J. F. Carter ed. (Number 19 in the series “Agronomy”) pp. 339-386. This treatment enables maintainer plants to behave as CMS inbred lines and allows the production of heterozygous resistant hybrids, with the herbicide resistant source coming from the female side. Such crosses allowed evaluating the sexual effect of the mutation source when introduced on the female side of a cross as described in crosses C, D and E versus the male side of a cross as described in crosses F, G and H. Labels I, J and K identify third generation CMS mutant lines crossed with fourth generation maintainer lines to maintain the highly heritable mutant trait in a male sterile homozygous resistant environment. One skilled in sunflower breeding art understands the meaning of such crosses.
(§3) A rating of 0% phytotoxicity means no crop injury.

Data set [1] concerns Inbred line control: H89A. It is filed as in vivo, sunflower. The conditions noted are these: variety B.
From the text: as §2, §3

The subject of the next data set is H89A × M4M7. It counts as in vivo, sunflower. The note with it: variety H.
From the text: as §2, §3

A further data set deals with H89A × M4M11. It counts as in vivo, sunflower. The note with it: variety G.
From the text: as §2, §3

For data set [2], the system named is Hybrid control: H89A × RHA274. It is filed as in vivo, sunflower. The conditions noted are these: variety A.
From the text: as §2, §3

The test system of the next data set is M5M12. Nature of the data set: Test B greenhouse phytotoxicity, M5M12. The conditions noted are these: in vivo. It is filed as in vivo, sunflower. In short, it runs like this:
as §1

A further data set has as its system BC4-M5M11. Nature of the data set: Test B greenhouse phytotoxicity, BC4-M5M11. It counts as in vivo, sunflower. The conditions noted are these: in vivo. In short, it runs like this: as §1
The subject of data set [3] is homozygous progeny of the three mutant sources. It counts as in vivo, sunflower. The conditions noted are these: Test B application rates, post-emergence. An outline of the steps:
as §1

A further data set deals with 'M11'. Nature of the data set: Tolerance of M11 to rimsulfuron. The conditions noted are these: in vivo.
The subject of data set [4] is acetolactate synthase (ALS) from M2E24. Nature of the data set: ALS activity remaining, M2E24 extract. It is filed as biochemical, sunflower. The conditions noted are these: mutant line selected with rimsulfuron, in the presence of rimsulfuron.
Data set [5] relates to Homozygous resistant inbred lines, BC3-M4M12 (I), BC3-M4M11 (J) and BC3-M4M7 (K). Nature of the data set: Test A summary, homozygous resistant inbred lines. The conditions noted are these: in vivo. As to the method:
In a small field trial, the sunflower varieties described in Table 4 were sprayed post-emergence with a variety of sulfonylurea herbicide treatments.
Broadcast post-emergence applications of formulated sulfonylurea herbicides were performed at the 6-leaf development stage using four randomly distributed replications. Application rates were chosen to match the usual use rates of these herbicides in the crops they are registered in Europe. All herbicides except for metsulfuron-methyl were sprayed in combination with Citowet® non-ionic ethoxylated alcohol at 0.25% volume of formulated product per volume of water applied per hectare.
The evaluation of the maximum (i.e. peak) injury to sunflower varieties by sulfonylurea herbicides was measured by visual ratings, which are listed in Table 5. A rating of 0% phytotoxicity means no crop injury. […] A rating of 100% means the complete destruction of all plants.

Data set [6] deals with ALS enzymes of the mutant lines selected with thifensulfuron-methyl. Nature of the data set: ALS activity of mutant lines relative to wild-type H89B. It counts as biochemical, sunflower. The note with it: in the presence of thifensulfuron-methyl.
In the next data set the test system is BC2-M3M12. Nature of the data set: Test G control of volunteer sunflower, BC2-M3M12. It counts as in vivo. The conditions noted are these: rated 4 weeks after application, scale 0-100.
Data set [7] deals with mutants originating from M11 and M12. The note with it: tribenuron-methyl up to 60 g a.i./ha; others at Test G rates. An excerpt:
This test involved sulfonylurea-resistant sunflower progeny BC2-M3M11 and BC2-M3M12, derived from M11 and M12, respectively. Also, a sulfonylurea-susceptible hybrid, H89A×RHA274, was included for comparison. Plants were sprayed with formulated herbicides at the 4-leaf stage. The efficacy of the treatments on the sunflowers was visually rated 4 weeks after application, using a scale where 0 means no control of the sunflowers, 85 means sufficient efficacy level to stop plants from flowering and propagating, and 100 means a complete destruction of the mutants.
Weed control in sugar beet requires 2-3 herbicide applications per season to efficiently control weeds in this slow growing crop.

The next data set relates to BC2-M3M11. Nature of the data set: Test G control of volunteer sunflower, BC2-M3M11. It counts as in vivo. The conditions noted are these: rated 4 weeks after application, scale 0-100.
The test system of data set [8] is H89A × RHA274 (sulfonylurea-susceptible hybrid). Nature of the data set: Test G control of volunteer sunflower, H89A × RHA274. The conditions noted are these: rated 4 weeks after application, scale 0-100. It counts as in vivo.

In the case of `CCS(=O)(=O)c1cccnc1S(=O)(=O)NC(=O)Nc1nc(OC)cc(OC)n1` [Rimsulfuron, rimsulfuron], the “Maximum Phytotoxicity” value in the data set on BC4-M5M7 was determined as 45%; in the data set with M5M7, 52.5%; in the data set on BC4-M5M12, 65%; with M5M11 it was 65%; in the data set on H89A × M4M12 (15 g a.i./ha post-emergence), 98%; with H89A × M4M12 (30 g a.i./ha post-emergence), 100%. For the same compound, the “Maximum Phytotoxicity” value was 100% in data set [1] (15 g a.i./ha post-emergence); 100% in [1] (30 g a.i./ha post-emergence); 96% in the data set on H89A × M4M7 (15 g a.i./ha post-emergence); 100% with H89A × M4M7 (30 g a.i./ha post-emergence); 98% in the data set with H89A × M4M11 (15 g a.i./ha post-emergence); 100% in the data set with H89A × M4M11 (30 g a.i./ha post-emergence). For the same compound, the “Maximum Phytotoxicity” value in [2] (15 g a.i./ha post-emergence) was 100%; in data set [2] (30 g a.i./ha post-emergence), 100%; in the data set on M5M12, 55%; with BC4-M5M11 it was 47.5%. In addition, the “tolerance of the mutants” value in data set [3] is given as “somewhat sensitive”. Moreover, the “tolerance of M11” value with 'M11' is recorded as “not tolerant”. In addition, the “ALS activity retained relative to wild-type ALS from H89B” value in data set [4] was 4-6 times. The “tolerance of homozygous resistant inbred lines I, J, K” value in [5] is on record as “as susceptible as the standards”.

On to `COC(=O)c1sccc1S(=O)(=O)NC(=O)Nc1nc(C)nc(OC)n1` [Thifensulfuron-methyl, thifensulfuron-methyl], for which, in [6], the “ALS activity retained relative to wild-type ALS from H89B” value is on record as 2-6 times. Moreover, the “Efficacy on BC2-M3M12” value with BC2-M3M12 (10 g a.i./ha) was found to be 10; in the data set on BC2-M3M12 (20 g a.i./ha), 16; in the data set with BC2-M3M12 (40 g a.i./ha), 32; with BC2-M3M12 (60 g a.i./ha) it was 58. For the same compound, the “Maximum Phytotoxicity” value is 78% with H89A × M4M12 (35 g a.i./ha post-emergence); 89% in the data set with H89A × M4M12 (70 g a.i./ha post-emergence); 100% in data set [1] (35 g a.i./ha post-emergence); 100% in [1] (70 g a.i./ha post-emergence); 80% in the data set with H89A × M4M7 (35 g a.i./ha post-emergence); 90% in the data set on H89A × M4M7 (70 g a.i./ha post-emergence). For the same compound, the “Maximum Phytotoxicity” value in the data set on H89A × M4M11 (35 g a.i./ha post-emergence) was determined as 81%; in the data set on H89A × M4M11 (70 g a.i./ha post-emergence), 90%; in data set [2] (35 g a.i./ha post-emergence), 100%; in [2] (70 g a.i./ha post-emergence), 99%. For the same compound, the “resistance/tolerance of the mutants” value in data set [7] is on record as “to a lesser extent than with tribenuron-methyl”. Besides, the “Efficacy on BC2-M3M11” value with BC2-M3M11 (10 g a.i./ha) is listed as 2; with BC2-M3M11 (20 g a.i./ha), 17; in the data set on BC2-M3M11 (40 g a.i./ha), 50; in the data set on BC2-M3M11 (60 g a.i./ha) it was 74. Also, the “Efficacy on H89A × RHA274” value in data set [8] (10 g a.i./ha, 4-leaf stage) was determined as 100; in data set [8] (20 g a.i./ha), 100; in data set [8] (40 g a.i./ha), 100; in [8] (60 g a.i./ha), 100. Also, the “tolerance of homozygous resistant inbred lines I, J, K” value in data set [5] is “less susceptible than the standards”. Also, the “tolerance of homozygous resistant lines compared with heterozygous hybrids” value in data set [5] is listed as “the homozygous resistant lines were more tolerant”.
